Where “and” joins values, the source holds several entries; their conditions need not be identical. Identical values can stand only once. Toxic doses and inconclusive results are not listed. Cut-off read from the data, not from the text of the source: active = T/C of 150% or more; inactive = T/C below 125%.
Tested on: L1210 leukemia ip in BDF1 mice, survival T/C
Test: NCI In Vivo Anticancer Drug Screen. Data for tumor model L1210 Leukemia (intraperitoneal) in B6D2F1 (BDF1) mice
Conditions: endpoint: mean survival time, higher = longer survival
How it was run: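 Survival endpoint. Drug-treated group vs vehicle group, expressed as T divided by C. Tumor passaged by transplantation.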

[1] = dose: 100.0 mg/kg/injection, schedule: Q04DX003 (ip), vehicle: Klucel (hydroxypropylcellulose) (HPC)
[2] = dose: 200.0 mg/kg/injection, schedule: Q04DX003 (ip), vehicle: Klucel (hydroxypropylcellulose) (HPC)
[3] = dose: 400.0 mg/kg/injection, schedule: Q04DX003 (ip), vehicle: Klucel (hydroxypropylcellulose) (HPC)
[4] = dose: 100.0 mg/kg/injection, schedule: Q01DX001 (ip), vehicle: saline
[5] = dose: 200.0 mg/kg/injection, schedule: Q01DX001 (ip), vehicle: saline
[6] = dose: 400.0 mg/kg/injection, schedule: Q01DX001 (ip), vehicle: saline
[7] = dose: 100.0 mg/kg/injection, schedule: Q01DX009 (ip), vehicle: Klucel (hydroxypropylcellulose) (HPC)
[8] = dose: 200.0 mg/kg/injection, schedule: Q01DX009 (ip), vehicle: Klucel (hydroxypropylcellulose) (HPC)
[9] = dose: 400.0 mg/kg/injection, schedule: Q01DX009 (ip), vehicle: Klucel (hydroxypropylcellulose) (HPC)
[10] = dose: 50.0 mg/kg/injection, schedule: Q01DX009 (ip), vehicle: Klucel (hydroxypropylcellulose) (HPC)
[11] = dose: 25.0 mg/kg/injection, schedule: Q04DX003 (ip), vehicle: Klucel (hydroxypropylcellulose) (HPC)
[12] = dose: 25.0 mg/kg/injection, schedule: Q01DX009 (ip), vehicle: Klucel (hydroxypropylcellulose) (HPC)
[13] = dose: 50.0 mg/kg/injection, schedule: Q04DX003 (ip), vehicle: Klucel (hydroxypropylcellulose) (HPC)
[14] = dose: 100.0 mg/kg/injection, schedule: Q01DX009 (ip), vehicle: saline with Tween-80
[15] = dose: 100.0 mg/kg/injection, schedule: Q04DX003 (ip), vehicle: saline with Tween-80
[16] = dose: 100.0 mg/kg/injection, schedule: Q01DX001 (ip), vehicle: carboxymethylcellulose (CMC)
[17] = dose: 200.0 mg/kg/injection, schedule: Q01DX001 (ip), vehicle: carboxymethylcellulose (CMC)
[18] = dose: 400.0 mg/kg/injection, schedule: Q01DX001 (ip), vehicle: carboxymethylcellulose (CMC)
[19] = dose: 100.0 mg/kg/injection, schedule: Q01DX001 (ip), vehicle: other
[20] = dose: 200.0 mg/kg/injection, schedule: Q01DX001 (ip), vehicle: other
[21] = dose: 400.0 mg/kg/injection, schedule: Q01DX001 (ip), vehicle: other
[22] = dose: 25.0 mg/kg/injection, schedule: Q01DX005 (ip), vehicle: other
[23] = dose: 50.0 mg/kg/injection, schedule: Q01DX005 (ip), vehicle: other

Measured: T/C

Oc1nc(/N=C2/N=c3ccc(Cl)cc3=N2)[nH]c1O
inactive: [1] 98 % of control | [2] 106 % of control | [3] 98 % of control

CCCC(=O)CC(=O)CC(C)C
inactive: dose: 50.0 mg/kg/injection, schedule: Q01DX001 (ip), vehicle: saline 100 % of control | [4] 94 % of control | [5] 107 % of control | [6] 94 % of control

NC(CSS(=O)(=O)O)=NCC12CC3CC(CC(C3)C1)C2
inactive: dose: 12.5 mg/kg/injection, schedule: Q04DX002 (ip), vehicle: Klucel (hydroxypropylcellulose) (HPC) 104 % of control | dose: 25.0 mg/kg/injection, schedule: Q04DX002 (ip), vehicle: Klucel (hydroxypropylcellulose) (HPC) 95 % of control

COc1ccc(CO)cc1OC
inactive: [7] 101 % of control | [1] 97 % of control | [8] 113 % of control | [2] 94 % of control | [9] 97 % of control | [3] 94 % of control

CN(C=O)c1ccc(C(=O)NC(CC(=O)O)CC(=O)O)cc1
inactive: [4] 111 % of control | [5] 94 % of control | [6] 103 % of control

CCC1CCCCN1CCNc1ccc(CO)c2sc3ccccc3c(=O)c12 (stereo unspecified)
inactive: [10] 101 % of control | [7] 115 % of control | [8] 120 % of control

Cc1cccc(C[As](=O)(O)O)c1
inactive: dose: 12.5 mg/kg/injection, schedule: Q04DX003 (ip), vehicle: Klucel (hydroxypropylcellulose) (HPC) 97 % of control | [11] 111 % of control

Clc1nc(Cl)nc(SCCSc2nc(Cl)nc(Cl)n2)n1
inactive: dose: 100.0 mg/kg/injection, schedule: Q04DX003 (ip), vehicle: saline 97 % of control | dose: 200.0 mg/kg/injection, schedule: Q04DX003 (ip), vehicle: saline 110 % of control | dose: 400.0 mg/kg/injection, schedule: Q04DX003 (ip), vehicle: saline 98 % of control

O=C(CCCN1CCC(n2c(=O)[nH]c3ccccc32)CC1)c1ccc(F)cc1
inactive: dose: 6.25 mg/kg/injection, schedule: Q01DX009 (ip), vehicle: Klucel (hydroxypropylcellulose) (HPC) 92 % of control | dose: 12.5 mg/kg/injection, schedule: Q01DX009 (ip), vehicle: Klucel (hydroxypropylcellulose) (HPC) 113 % of control | dose: 12.5 mg/kg/injection, schedule: Q01DX009 (ip), vehicle: saline 102 % of control | [12] 120 % of control | dose: 25.0 mg/kg/injection, schedule: Q01DX009 (ip), vehicle: saline 110 % of control | [11] 98 % of control and 90 % of control | [10] 96 % of control | dose: 50.0 mg/kg/injection, schedule: Q01DX009 (ip), vehicle: saline 93 % of control | [13] 96 % of control | dose: 100.0 mg/kg/injection, schedule: Q01DX009 (ip), vehicle: saline 93 % of control | [1] 91 % of control and 111 % of control | [2] 110 % of control | [3] 97 % of control

CCCCCCCCCCCCCCc1sc(N)nc1-c1ccccc1
inactive: [4] 98 % of control | [5] 98 % of control | [6] 95 % of control

O=c1oc(-c2cccc(Cl)c2)nc2cc(Cl)ccc12
inactive: [7] 104 % of control | [8] 116 % of control | [9] 115 % of control

COC(OC)c1[nH]c(=S)[nH]c(=O)c1Cc1ccc(C)c(C)c1
inactive: [14] 104 % of control | [15] 94 % of control | dose: 200.0 mg/kg/injection, schedule: Q01DX009 (ip), vehicle: saline with Tween-80 96 % of control | dose: 200.0 mg/kg/injection, schedule: Q04DX003 (ip), vehicle: saline with Tween-80 96 % of control | dose: 400.0 mg/kg/injection, schedule: Q01DX009 (ip), vehicle: saline with Tween-80 87 % of control | dose: 400.0 mg/kg/injection, schedule: Q04DX003 (ip), vehicle: saline with Tween-80 100 % of control

CCOC(OCC)/C(C)=N\NC(N)=S
inactive: dose: 15.0 mg/kg/injection, schedule: Q01DX Z (ip), vehicle: carboxymethylcellulose (CMC) 98 % of control | dose: 30.0 mg/kg/injection, schedule: Q01DX Z (ip), vehicle: carboxymethylcellulose (CMC) 102 % of control | dose: 60.0 mg/kg/injection, schedule: Q01DX Z (ip), vehicle: carboxymethylcellulose (CMC) 96 % of control | dose: 120.0 mg/kg/injection, schedule: Q01DX Z (ip), vehicle: carboxymethylcellulose (CMC) 86 % of control | dose: 120.0 mg/kg/injection, schedule: Q01DX Z (oral), vehicle: carboxymethylcellulose (CMC) 95 % of control | dose: 240.0 mg/kg/injection, schedule: Q01DX Z (oral), vehicle: carboxymethylcellulose (CMC) 97 % of control | dose: 480.0 mg/kg/injection, schedule: Q01DX Z (oral), vehicle: carboxymethylcellulose (CMC) 94 % of control

CCOC(=O)C1(C(=O)OCC)C=C(CC)C(=O)OC1
inactive: dose: 50.0 mg/kg/injection, schedule: Q01DX001 (ip), vehicle: carboxymethylcellulose (CMC) 111 % of control | [16] 100 % of control | [17] 113 % of control | [18] 105 % of control

COc1cc([N+](=O)[O-])c(/C=C2/c3cc(OC)c(OC)cc3CCN2C)cc1Br
inactive: [7] 100 % of control | [1] 90 % of control | [8] 96 % of control | [2] 96 % of control | [9] 92 % of control | [3] 95 % of control

CCCNC1(C(N)=O)CCN(Cc2ccccc2)CC1
inactive: dose: 25.0 mg/kg/injection, schedule: Q01DX009 (ip), vehicle: saline with Tween-80 93 % of control | dose: 25.0 mg/kg/injection, schedule: Q04DX003 (ip), vehicle: saline with Tween-80 97 % of control | dose: 50.0 mg/kg/injection, schedule: Q01DX009 (ip), vehicle: saline with Tween-80 95 % of control | dose: 50.0 mg/kg/injection, schedule: Q04DX003 (ip), vehicle: saline with Tween-80 97 % of control | [14] 91 % of control | [15] 97 % of control and 101 % of control

Cc1c([N+](=O)[O-])ccc2ccccc12
inactive: [19] 103 % of control | [1] 108 % of control | [20] 98 % of control | [2] 101 % of control | [21] 103 % of control | [3] 100 % of control

CC(=O)OCC1OC(n2nnc(CBr)c2CBr)C(OC(C)=O)C(OC(C)=O)C1OC(C)=O (stereo unspecified)
inactive: dose: 12.5 mg/kg/injection, schedule: Q01DX005 (ip), vehicle: other 94 % of control | [22] 102 % of control | [23] 97 % of control

Cc1cc(C)c2[nH]c(=O)c(C)c(C)c2c1
inactive: [19] 104 % of control | [20] 95 % of control | [21] 95 % of control

CC(=O)OCC1OC(N2C(=O)/C(=C(/C)c3ccccn3)SC2=S)C(OC(C)=O)C(OC(C)=O)C1OC(C)=O (stereo unspecified)
inactive: [22] 92 % of control | [23] 97 % of control | dose: 100.0 mg/kg/injection, schedule: Q01DX005 (ip), vehicle: other 94 % of control | dose: 200.0 mg/kg/injection, schedule: Q01DX005 (ip), vehicle: other 96 % of control | dose: 400.0 mg/kg/injection, schedule: Q01DX005 (ip), vehicle: other 96 % of control

O=C(O)COc1ccc(/C=C/c2ccnc3ccccc23)cc1
inactive: [7] 94 % of control | [8] 99 % of control | [9] 86 % of control

O=[N+]([O-])c1ccc2ccc3ccccc3c2c1
inactive: [16] 97 % of control | [17] 95 % of control | [18] 97 % of control

O=NO.O=N[O-].O=N[O-].[Co+3].[NH2-].[NH2-].[NH2-].[NH2-]
inactive: dose: 12.0 mg/kg/injection, schedule: Q01DX009 (ip), vehicle: Klucel (hydroxypropylcellulose) (HPC) 100 % of control | [12] 107 % of control | [11] 103 % of control | [10] 102 % of control | [13] 96 % of control | [1] 94 % of control and 110 % of control

Cc1cc(P(=O)(O)O)ccc1[N+](=O)[O-]
inactive: dose: 75.0 mg/kg/injection, schedule: Q01DX001 (ip), vehicle: saline 95 % of control | dose: 150.0 mg/kg/injection, schedule: Q01DX001 (ip), vehicle: saline 88 % of control | dose: 300.0 mg/kg/injection, schedule: Q01DX001 (ip), vehicle: saline 96 % of control
